Experimental findings from patent US12642795B2, “MRGPRX2 antagonist for the treatment of pseudo allergic reactions” (The University of Hong Kong, priority 2021, dated 2026) are described below.

pIC50: −log10 of the molar value.

In assay [1] the test system is C57/BL/6N mice. Briefly: In-vivo local anaphylaxis/pseudo allergic mice model (C48/80 induced). As to conditions: 5 mg/kg intraperitoneally, vs C48/80 mice; for increase in paw thickness: 15 min after C48/80 (30 μg/ml) in paw; for Evans blue dye extravasation: 15 min after C48/80 (30 μg/ml). Details: species or system mouse. From the text:
Young adult male mice (C57/BL/6N aged 6-8 weeks old, n=6/group) were used to measure the local anaphylaxis activity by measuring Evans blue tissue extravasation in paw and ear tissue. The animal experiments were approved by the Committee on the Use of Live Animals in Teaching and Research (CULATR) (Animal ethical approval number CULATR 5125-19). Mice were anesthetized via intraperitoneal injection of ketamine and xylazine, and paw thickness was measure using a Vernier caliper. The antagonists (GE0117, GE1109, and GE1111) were injected at a dose of 5 mg/kg body weight via intraperitoneal injection followed by a tail vein injection of 50 μL 12.5% Evans blue in saline (irrespective of the bodyweight). After thirty minutes, C48/80 (10 μL of 30 μg/ml) was injected into one paw and ear, while saline was injected into the other paw and ear as a negative control. After fifteen minutes, the paw and ear tissue were photographed, and the paw thicknesses were measured again to calculate % increase in paw thickness. Mice were euthanized by cervical dislocation under anesthesia, and the collected paw and ear tissues were dried at 50° C. for 24 hours and weighed separately. Evans blue was extracted with formamide (500 μL/tissue) by incubating at 50° C. for 24 h. The supernatant was aliquoted into 96-well plates (200 μL/well, duplicate), and OD was measure at 595 nm using a Victor 4× plate reader (PerkinElmer). The paw edema/inflammation was measured as % increase in paw thickness=

The subject of assay [2] is Human LAD-2 mast cells. Briefly: β-Hexosaminidase MCs degranulation assay. It counts as cell-based. As to conditions: LAD2, LAD-2 MCs, followed by EC90 concentration (10 μM) of C48/80. How it is done:
Human LAD-2 mast cells were seeded at 2×10^4 cells/well/80 μL in a 96-well plate. A 10× stock of antagonist were prepared in HEPES buffer (HEPES (10 mM), NaCl (137 mM), KCl (2.7 mM), Na2HPO4·7H2O (0.4 mM), glucose (5.6 mM), CaCl2·2H2O (1.8 mM), MgSO4·7H2O (1.3 mM), bovine serum albumin (0.04%), pH 7.4). […] The plate was spun at 450×g for 5 minutes at room temperature, and 50 μL of supernatant was aliquoted to a new 96 well plate. The cells were lysed with 100 μL of 0.1% Triton X-100, and 50 μL of lysate was aliquoted to another 96 well plates. A 1.3 mg/ml solution of the substrate PNAG (4-Nitrophenyl N-acetyl-β-D-glucosaminide) was prepared in 0.1 M citric acid/sodium citrate buffer (pH 4.5, 24.087 g/L Sodium Citrate dihydrate, and 3.471 g/L Citric Acid). 50 μL of PNAG was added to each well of supernatant and lysate, and cells were incubated for 90 min at 37° C. (without CO2). The reaction was stopped by adding 50 μL of 0.4 M Glycine buffer. The extent of yellow color was measured at 405 nm using Victor 4× plate reader (PerkinElmer), and percentage MCs degranulation (β-hexosaminidase release) was calculated by using the formula; % MCs degranulation: […]

In assay [3] the target is T1, MRGPRX2 (Homo sapiens, UniProt Q96LB1).
T1 construct: expressed in transfected cells; host or cells: HTLA cells
T1 sequence (Q96LB1 1-330): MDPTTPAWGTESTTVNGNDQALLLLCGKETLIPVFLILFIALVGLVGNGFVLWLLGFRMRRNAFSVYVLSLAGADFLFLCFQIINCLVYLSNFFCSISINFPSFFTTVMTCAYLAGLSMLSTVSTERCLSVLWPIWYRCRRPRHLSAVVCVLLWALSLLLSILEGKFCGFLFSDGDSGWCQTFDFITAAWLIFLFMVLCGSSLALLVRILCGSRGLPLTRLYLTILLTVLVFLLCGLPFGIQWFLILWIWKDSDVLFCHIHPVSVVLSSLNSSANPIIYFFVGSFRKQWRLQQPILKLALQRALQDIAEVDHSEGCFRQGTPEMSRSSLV
Put plainly: MRGPRX2 activation assay (PRESTO-Tango assay). Conditions: MRGPRX2-Tango transfected HTLA cells, followed by EC90 concentration (10 μM) of C48/80. It counts as cell-based. How it is done: On day 1 of the experiment, HTLA cells were seeded at 1×10^6 cells per 100 mm cell culture dish for transfection. On the following day (day 2), HTLA cells were transfected with Tango MRGPRX2 DNA using the Lipofectamine transfection reagent (Thermo Fischer Scientific). On day 3, Tango MRGPRX2 transfected cells were transferred into 96-well white clear-bottom cell culture plates at a density of 2×10^4 cells/well/80 μL (PerkinElmer Life Science).

Assay [4] has as its system C57/BL/6N mice. Briefly: In-vivo systemic anaphylaxis mice model (C48/80 induced). Further details: species or system mouse. As to conditions: 5 mg/kg intraperitoneally, C48/80 8 mg/kg intraperitoneally. How it is done: Animals (C57/BL/6N aged 6-8 weeks old, n=6-8/group) were transported to the procedure area the day before injections to minimize stress. The antagonists (GE0117, GE1109, or GE1111) or vehicle was injected intraperitoneally, and mice were kept in the cage for 30 minutes. After 30 minutes of saline (negative control), 8 mg/kg of C48/80 was injected intraperitoneally. The volume of intraperitoneal injection was 10 ml/kg body weight as per AAALAC guidelines. The injection site was swabbed with cotton soaked in 70% alcohol, and the mouse was placed in a separate cage as one mouse per cage. Body core temperature was measured before (basal) and after the injections with an IR non-contact thermometer for one hour. Also, mice were monitored for anaphylaxis symptoms/severity and scored from 0-5 for 1 h or until death following C48/80 injection, whichever was first. Briefly, the scoring system was followed as 0, no symptoms; 1, scratching and rubbing around the nose and head; 2, puffiness around the eyes and mouth, diarrhea, pilar erecti, reduced activity, and/or decreased activity with an increased respiratory rate; 3, wheezing, labored respiration, and cyanosis around the mouth and the tail; 4, no activity after prodding or tremor and convulsion; 5, death. The body core temperature and anaphylaxis score were plotted using Graph Pad Prism.

As for `COC(=O)c1cc2cc(NC(N)=O)ccc2cc1-c1ccc2c3c(cccc13)C(=O)C=C2` [GE1109], in assay [1], the “increase in paw thickness” value is reported as “significant (*P<0.05) antagonizing activity” and the “Evans blue dye extravasation” value is on record as “significant (*P<0.05) antagonizing activity”. The pIC50 in assay [2] was 5.01. The pIC50 in assay [3] was 5.15. In addition, in assay [4], the “C48/80 induced body temperature change at 35 minutes” value is on record as “significantly reversed the body temperature change” and the “C48/80 induced body temperature changes at 30 minutes” value is reported as “reversed the C48/80 induced body temperature changes”.

For the compound `COC(=O)c1cc2cc(NC(N)=O)ccc2cc1-c1cc2c3c(c(O)ccc3c1)C(C)C(C=O)=C2` (stereo not shown) [GE1111], in assay [1], the “increase in paw thickness” value was “significantly (***P<0.001) attenuated” and the “Evans blue dye extravasation” value was “significantly (***P<0.001) attenuated”. Besides, in assay [2], the pIC50 is 5.33. Moreover, in assay [3], the pIC50 was 5.03. Also, in assay [4], the “C48/80 induced body temperature change at 35 minutes” value is “significantly reversed the body temperature change” and the “C48/80 induced body temperature changes at 30 minutes” value is recorded as “reversed the C48/80 induced body temperature changes”. Besides, in assay [4] (1 h), the “systemic anaphylaxis symptoms (score 0-5)” value was “rehabilitated the compound 48/80 induced hypothermia and severity of anaphylaxis symptoms”.

By pIC50 is commonly meant the IC50 on a negative log10 scale, so that one unit is a factor of ten. Low values mean a high IC50, high ones a low IC50.
